Experimental data taken from article PMC12566971, “Polyprenylated Acylphloroglucinols from Hypericum rochelii and Hypericum olympicum—Cytotoxic Effects on Non-Tumorigenic Cell Lines and Antibacterial Potential” (Pharmaceuticals, 2025).

Experiments:
S. aureus = test: Time kill assay; type: cell-based, Staphylococcus aureus
Protocol: A time kill assay was performed according to the modified protocol of Sendi and Ruppen, 2015 [137]. […] From these dilutions, 25 µL was seeded in brain heart infusion agar in a well of a 12-well plate. An untreated control was plated in the same way. Then, the bacterial suspension (treated and untreated) was placed in an incubator (MLW Kombinat, Leipzig, Germany) at 37 °C. Again, 25 µL of it was taken for seeding after 1, 2, 3, 4, 6, and 24 h, which equals a total of 7 time points. After 16–24 h of incubation, the colonies in the seeded plates from all dilutions were counted, and the number of colony-forming units (CFU) per mL, or in other words, bacteria per mL, was calculated.

icaA gene in MRSA = test: Real-time PCR, relative gene expression; type: cell-based, Staphylococcus aureus; details: control = 1
Protocol: (§1) The preparation of the samples for the RNA isolation was carried out as for the biofilm assay. RNA from the treated samples and the untreated positive MRSA control was isolated with the help of the Environmental DNA & RNA Purification Kit (E3572, EURx Ltd., Gdańsk, Poland). […] A total of 50 µL lysozyme (20 mg/mL) from chicken egg white (L6876, Merck Sigma-Aldrich) and 10 µL lysostaphin (L4402, Merck Sigma-Aldrich) from Staphylococcus staphylolyticus (200 U/mL) were added per sample. […] The samples, being bacterial, were subjected to cDNA synthesis using random hexamer primers and reverse transcriptase enzymes. The obtained cDNA samples were stored at −80 °C and used for real-time PCR.
(§2) For normalization of the data, the rho gene was used as a housekeeping gene.

icaD gene in MRSA = test: Real-time PCR, relative gene expression; type: cell-based, Staphylococcus aureus; details: control = 1
Protocol: as §1, §2

CCL-1 cell line = test: Live-cell imaging with Hoechst for apoptosis detection; type: cell-based; details: low MIC doses
Protocol: Cell suspension was seeded in the same manner as for MTT, but 50 µL per well in 96-well clear bottom plates. […] For the hypertonic buffer, the exposure time was 2 h, and the cells were plated at twice the concentration as for the MTT and cytopathic tests in order to comply with the kit protocol.
At least two wells were seeded as replicates, and at least two photographs were taken for all samples and treatments, stained with dyes or not.

HGF cells = test: Western blot for autophagy proteins Atg5, Atg7; type: cell-based, human; details: MIC for S. aureus, relative to untreated control
Protocol: For Western blot, CCL-1 and HGF cell lines were chosen, and they were seeded in either 6-well plates or 55 mm Petri dishes suitable for cell culture. They were treated with an exposure time of 24 h in an incubator (Panasonic MCO-18AC, Panasonic Healthcare Ltd., […], Japan). […] Hans-Jörg Eibl. In addition, a higher concentration of an […] added to one of the tests for comparison. The samples were trypsinized, collected, washed with PBS (TS1101, HiMedia, Mumbai, India), centrifuged, and frozen at -80 °C if storage was necessary. Then they were lysed on ice with a buffer containing 100 mM Tris-HCl (648313, Sigma-Aldrich, St. Louis, MO, USA) at pH 8.0, 4% sodium dodecyl sulfate (SDS, […], Sigma-Aldrich), 20% glycerol (49779, Sigma-Aldrich), 1% Na3VO4 (450243, Sigma-Aldrich), 200 mM dithiothreitol (DTT, 3483-12-3, Sigma-Aldrich, Burlington, MA, USA) supplemented with protease inhibitor (05892970001, Roche). The cell lysate was heated to boiling for 15 min, then centrifuged at 13,000 rpm for 10 min at 4 °C. Lysates were subjected to denaturing SDS polyacrylamide gel electrophoresis on acrylamide 4-20% gradient Mini-PROTEAN® TGXTM Stain-Free gels (4568094, Bio-Rad Laboratories, Hercules, CA, USA). […] Densitometric calculation and analysis was performed with Quantity One software version 4.6.9 (Bio-Rad Laboratories).

[1] = tested on: human total cytochrome P450 (CYP450); test: ELISA for total cytochrome P450 in HEPG2 cells; type: in vitro ADME; details: HEPG2, 24 h, concentrations inhibiting S. aureus
Protocol: The effect on CYP450 was tested using the ELISA method on the HEPG2 liver cell line. As mentioned, it has weak or absent expression of the CYP450 superfamily, e.g., CYP3A4, CYP1A2, etc., and that low basal activity makes it a good model for studies of CYP inducers. In addition, these cells have the advantage of immortalization due to their cancerous nature. The standard curves after the two ELISA tests (Figure S7) were prepared as a standard dose–response curve, also called a four-parameter logistic (4-PL) curve.
Human total cytochrome P450 was examined using the Human Cytochrome P450 ELISA Kit (MBS705506, MyBioSource, San Diego, CA, USA) according to the manufacturer’s instructions. HEPG2 cells were seeded at a concentration of 100,000 cells/mL in a 6-well plate, and the overnight culture was treated with selected Hypericum agents. After 24 h of exposure, the protocol was performed according to the kit instructions.
The test principle uses the sandwich quantitative enzyme immunoassay technique. A microplate was pre-coated with an antibody specific for cytochrome P450. Standards and samples were pipetted into the wells, and if cytochrome P450 molecules were present, they were bound by the immobilized antibody. […] The color development was stopped, and its intensity was measured on a microplate reader ELx800 (BioTek Instruments, Inc., Winooski, VT, USA).

CC(C)=CCCC1(C)C(CC=C(C)C)CC2C(=O)C1(C(=O)C(C)C)C(=O)C(CC=C(C)C)=C2O (centres unmarked) [Olympiforin B]
Bacteria remaining in time kill assay (S. aureus; 1/2 × MBC, 24 h): 302,000 CFU/mL
Outcome of time kill assay (S. aureus; MBC concentration, by 24 h): killed all bacteria
Relative gene expression, icaA (icaA gene in MRSA; 1/8 × MIC): 0.37
Relative gene expression, icaA (icaA gene in MRSA; 1/16 × MIC): 0.53
Relative gene expression, icaA (icaA gene in MRSA; 1/32 × MIC): 0.28
Relative gene expression, icaD (icaD gene in MRSA; 1/8 × MIC): 0.41
Relative gene expression, icaD (icaD gene in MRSA; 1/16 × MIC): 0.82
Relative gene expression, icaD (icaD gene in MRSA; 1/32 × MIC): 0.95
Nuclear and DNA condensation (signs of apoptosis) (CCL-1 cell line): did not cause any nuclear and DNA condensation
Increase of Atg5 and Atg7 proteins (HGF cells): 106–135%
Induction of total CYP450 [1]: hardly induce
